One block for each compound: values may come before it.
Key:
[1] = target: T1, K928A/D1069A double mutant TRPM2 channel (Homo sapiens, UniProt O94759, D1069A/K928A); test: Whole-cell patch-clamp recording, K928A/D1069A double mutant in HEK293T cells; format: cell-based; conditions: intracellular ADPR 500 μM
T1 construct: expressed in transfected cells; host or cells: HEK293T cells, Lipofectamine 3000, GFP cDNA co-transfected as a separate marker
Method: (§1) 3. Cell culture and transfection: Human embryonic kidney 293 (HEK293) cells with tetracycline-inducible expression of human TRPM2 channel (hTRPM2) were cultured in a mixed medium containing DMEM/F-12 and 10% fetal bovine serum as well as blasticidin (50 μg/ml) and zeocin (0.4 mg/ml). The expression of hTRPM2 was induced by substituting […] (1 μg/ml) 24-48 hours before use. TRPM2 channel mutants were transiently expressed in HEK293T cells by transfection with using Lipofectamine 3000. Briefly, HEK293T cells were transiently transfected with cDNAs encoding the mutant hTRPM2 channel. The cDNA for GFP was co-transfected as a marker for identification of the transfected cells for electrophysiological experiments 16-24 hours after transfection. […]
4. Whole-cell and ingle-channel patch-clamp recording: the coverslips were placed in a culture dish (35×35 mm, Sorfa) containing HEPES based extracellular solution (ECS) and recorded by patch-clamp technique. […] Each coverslip was recorded only once with different drug exposures. […] The excised patches were voltage-clamped from −80 mV to +80 mV (in 20 mV increasement) to generate the current-voltage (I-V) relationship of single channel currents from which their main conductance was calculated from the slope by linear regression of the mean current amplitude at different potentials. […]

[2] = target: T2, human TRPM2 channel (hTRPM2) (Homo sapiens, UniProt O94759); test: Single-channel (outside-out) patch-clamp recording, HEK-hTRPM2 cells; format: cell-based; conditions: FFA applied after bilirubin
T2 construct: expressed in transfected cells; host or cells: HEK293 cells with tetracycline-inducible expression
Method: 1. Extracellular solution (in mM): 145 NaCl, 5.6 KCl, 2 MgCl2, 1.2 CaCl2, 10 HEPES, 10 glucose and pH adjusted to 7.4 by NaOH (290-320 mOsm).
2. Pipette solution contains (in mM): 147 NaCl, 1 MgCl2, 1 EGTA and 10 HEPES with pH 7.4 and osmolality 290-320 mOsm.
as §1, with “3000.” for “3000. Briefly, HEK293T cells were transiently transfected with cDNAs encoding the mutant hTRPM2 channel. The cDNA for GFP was co-transfected as a marker for identification of the transfected cells for electrophysiological experiments 16-24 hours after transfection.”
4. Whole-cell and ingle-channel patch-clamp recording: the coverslips were placed in a culture dish (35×35 mm, Sorfa) containing HEPES based extracellular solution (ECS) and recorded by patch-clamp technique. […] Each coverslip was recorded only once with different drug exposures. […] The excised patches were voltage-clamped from −80 mV to +80 mV (in 20 mV increasement) to generate the current-voltage (I-V) relationship of single channel currents from which their main conductance was calculated from the slope by linear regression of the mean current amplitude at different potentials.

[3] = system: cortical neurons in adult Trpm2+/+ brain slices; conditions: mouse, 1 h

T1 sequence (O94759 whole entry K928A/D1069A): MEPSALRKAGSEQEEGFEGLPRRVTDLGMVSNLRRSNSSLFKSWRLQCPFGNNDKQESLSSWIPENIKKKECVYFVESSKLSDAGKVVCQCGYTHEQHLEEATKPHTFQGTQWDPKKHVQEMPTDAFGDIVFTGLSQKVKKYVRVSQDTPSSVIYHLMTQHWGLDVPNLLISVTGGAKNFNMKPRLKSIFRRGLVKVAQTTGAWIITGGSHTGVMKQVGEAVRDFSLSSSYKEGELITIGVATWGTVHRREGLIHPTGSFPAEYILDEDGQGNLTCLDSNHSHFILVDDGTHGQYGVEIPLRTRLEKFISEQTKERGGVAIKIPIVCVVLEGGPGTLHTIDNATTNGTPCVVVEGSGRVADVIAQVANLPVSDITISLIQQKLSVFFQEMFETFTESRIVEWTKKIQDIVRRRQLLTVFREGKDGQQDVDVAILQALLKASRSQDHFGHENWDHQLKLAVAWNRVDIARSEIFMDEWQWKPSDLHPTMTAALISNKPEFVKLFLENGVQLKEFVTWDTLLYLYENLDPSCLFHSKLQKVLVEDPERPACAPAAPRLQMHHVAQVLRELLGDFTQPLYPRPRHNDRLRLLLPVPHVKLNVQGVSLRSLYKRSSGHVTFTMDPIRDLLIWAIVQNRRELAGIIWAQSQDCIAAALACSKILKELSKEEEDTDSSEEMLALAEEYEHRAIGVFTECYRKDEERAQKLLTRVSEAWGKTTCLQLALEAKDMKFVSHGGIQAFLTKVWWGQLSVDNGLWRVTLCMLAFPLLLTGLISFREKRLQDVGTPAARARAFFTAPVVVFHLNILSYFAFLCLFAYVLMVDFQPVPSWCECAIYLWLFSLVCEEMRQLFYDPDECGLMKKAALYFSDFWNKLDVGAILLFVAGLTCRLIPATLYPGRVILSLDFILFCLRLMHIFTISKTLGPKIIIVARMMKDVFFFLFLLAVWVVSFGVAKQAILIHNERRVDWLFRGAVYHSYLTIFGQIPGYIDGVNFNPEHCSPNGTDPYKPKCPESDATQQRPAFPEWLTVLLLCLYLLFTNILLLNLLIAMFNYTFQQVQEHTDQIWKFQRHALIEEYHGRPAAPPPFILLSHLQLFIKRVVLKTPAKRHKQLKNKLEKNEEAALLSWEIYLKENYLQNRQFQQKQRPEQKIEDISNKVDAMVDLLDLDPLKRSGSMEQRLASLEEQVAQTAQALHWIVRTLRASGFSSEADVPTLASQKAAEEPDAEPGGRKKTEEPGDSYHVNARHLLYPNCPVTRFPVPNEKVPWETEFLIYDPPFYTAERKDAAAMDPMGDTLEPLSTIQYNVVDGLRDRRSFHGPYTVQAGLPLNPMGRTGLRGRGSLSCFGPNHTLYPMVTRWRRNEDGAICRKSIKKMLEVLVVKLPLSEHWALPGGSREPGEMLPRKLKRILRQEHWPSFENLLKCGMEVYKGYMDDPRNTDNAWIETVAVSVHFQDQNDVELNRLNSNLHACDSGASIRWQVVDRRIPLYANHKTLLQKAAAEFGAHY
T2 sequence (O94759 whole entry): as the sequence (O94759 whole entry K928A/D1069A) above, with A928K, A1069D counted along it

activation of K928A/D1069A double mutant currents [1]: perfectly retained the agonist capacity
Compound: Nc1ncnc2c1ncn2[C@@H]1O[C@H](COP(=O)(O)OP(=O)(O)OC[C@H]2OC(O)[C@H](O)[C@@H]2O)[C@@H](O)[C@H]1O (stereo partly drawn) [ADPR, ADP-ribose]

effect on bilirubin-increased opening probability (Po) [2]: reversed
Compound: O=C(O)c1ccccc1Nc1cccc(C(F)(F)F)c1 [FFA, flufenamic acid]

Compound: C=CC1=C(C)/C(=C/c2[nH]c(Cc3[nH]c(/C=C4\NC(=O)C(C)=C4C=C)c(C)c3CCC(=O)O)c(CCC(=O)O)c2C)NC1=O [bilirubin]
mortality of cortical neurons [3]: 60.84±2.13%

From patent publication US20240115541A1, “METHOD FOR TREATING CEREBRAL APOPLEXY AND HYPERBILIRUBINEMIA BY COMPOUND FOR INHIBITING COMBINATION OF BILIRUBIN AND TRPM2 CHANNEL” (SHANGHAI SIXTH PEOPLE'S HOSPITAL, priority 2022, published 2024)
